What was measured:
[1] = target: T1, hen egg-white lysozyme (HEWL) (Gallus gallus, UniProt P00698); experiment: UV-Vis absorbance titration (binding constant K), […]; DSC; ESI-MS; conditions: read-out: K (M^-1) ^1
T1 construct: gene LYZ

[2] = target: T1, hen egg-white lysozyme (HEWL); experiment: UV-Vis absorbance titration (binding constant K), […]; DSC (no adduct seen in ESI-MS); conditions: read-out: K (M^-1) ^1

T1 sequence (P00698 19-147): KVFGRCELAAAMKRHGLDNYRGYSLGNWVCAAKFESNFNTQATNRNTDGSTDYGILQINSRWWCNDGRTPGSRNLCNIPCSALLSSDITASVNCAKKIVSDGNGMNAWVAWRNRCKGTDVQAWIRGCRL

Molecule `O=S(=O)(O)C(F)(F)F.[Cl][Pt-2]12[n+]3ccccc3-c3cc(-c4ccccc4)cc([n+]31)-c1cccc[n+]12` [compound 1, [PtCl(4′-phenyl-2,2′:6′,2″-terpyridine)](CF3SO3)] has a Kd [1] of 58.8 µM.
Molecule `O=S(=O)(O)C(F)(F)F.[I][Pt-2]12[n+]3ccccc3-c3cc(-c4ccccc4)cc([n+]31)-c1cccc[n+]12` [compound 2, [PtI(4′-phenyl-2,2′:6′,2″-terpyridine)](CF3SO3)] has a Kd [2] of 83.3 µM.

Reference: PMC8072931, “Thermodynamic Evaluation of the Interactions between Anticancer Pt(II) Complexes and Model Proteins” (Molecules, 2021)
